System: BJAB cells
Test: BJAB cell proliferation (Cell Titer Glo)
Type: cell-based
Settings: Homo sapiens, read-out: EC50
Summary of the method: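 BJAB cells exposed to serially diluted compounds (0.1% DMSO final) for about 72 h at 37 °C. Proliferation read by Cell Titer Glo luminescence as percent of untreated controls; EC50 from non-linear regression of dose-response data.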

SMILES	EC50
Cc1cc(C(=O)O)n(-c2nc(-c3ccc(Cl)c(Cl)c3)c(SC(C)C)s2)n1 [Compound 16, 1-(4-(3,4-dichlorophenyl)-5-(isopropylthio)thiazol-2-yl)-3-methyl-1H-pyrazole-5-carboxylic Acid]	50 to 100 µM
Cc1nn(-c2nc(-c3ccc(Cl)c(Cl)c3)c(SC(C)C)s2)c(C(=O)N(C)c2nnc(C(F)(F)F)s2)c1-c1cc(C(F)(F)F)cc(C(F)(F)F)c1 [Compound 77, 4-(3,5-bis(trifluoromethyl)phenyl)-1-(4-(3,4-dichlorophenyl)-5-(isopropylthio)thiazol-2-yl)-N,3-dimethyl-N-(5-(trifluoromethyl)-1,3,4-thiadiazol-2-yl)-1H-pyrazole-5-carboxamide]	> 40 µM
Cc1cc(-c2c(C)nn(-c3nc(-c4ccc(Cl)cc4Cl)c(SC(C)C)s3)c2C(=O)O)cc(C)n1 [Compound 160, 1-(4-(2,4-dichlorophenyl)-5-(isopropylthio)thiazol-2-yl)-4-(2,6-dimethylpyridin-4-yl)-3-methyl-1H-pyrazole-5-carboxylic Acid]	< 1 µM
Cc1nn(-c2nc(-c3ccc(Cl)c(Cl)c3)c(SC(C)C)s2)c(C(=O)O)c1-c1cncnc1 [Compound 72, 1-(4-(3,4-dichlorophenyl)-5-(isopropylthio)thiazol-2-yl)-3-methyl-4-(pyrimidin-5-yl)-1H-pyrazole-5-carboxylic Acid]	10 to 25 µM
Cc1cc(-c2c(C)nn(-c3nc(-c4ccc(Cl)c(Cl)c4)c(SC(C)C)s3)c2C(=O)O)cc(O[C@H]2CCOC2)n1 [Compound 182, (S)-1-(4-(3,4-dichlorophenyl)-5-(isopropylthio)thiazol-2-yl)-3-methyl-4-(2-methyl-6-((tetrahydrofuran-3-yl)oxy)pyridin-4-yl)-1H-pyrazole-5-carboxylic acid]	10 to 25 µM
Cc1nn(-c2nc(-c3ccc(Cl)cc3)c(SC(C)C)s2)c(C(=O)O)c1-c1cccc(F)c1 [Compound 177, 1-(4-(4-chlorophenyl)-5-(isopropylthio)thiazol-2-yl)-4-(3-fluorophenyl)-3-methyl-1H-pyrazole-5-carboxylic Acid]	< 1 µM
COc1cccc(-c2nc(-n3nc(C)c(Cc4ccccc4NS(C)(=O)=O)c3C(=O)O)sc2SC(C)C)c1 [Compound 105, 1-(5-(isopropylthio)-4-(3-methoxyphenyl)thiazol-2-yl)-3-methyl-4-(2-(methylsulfonamido)benzyl)-1H-pyrazole-5-carboxylic acid]	> 80 µM
Cc1nn(-c2nc(-c3ccc(F)cc3)c(SC(C)C)s2)c(C(=O)O)c1-c1cccc(F)c1 [Compound 186, 4-(3-fluorophenyl)-1-(4-(4-fluorophenyl)-5-(isopropylthio)thiazol-2-yl)-3-methyl-1H-pyrazole-5-carboxylic Acid]	1 to 5 µM
Cc1cc(-c2nc(-n3nc(C)c(-c4cccc(F)c4)c3C(=O)O)sc2SC(C)C)ccc1Cl [Compound 191, 1-(4-(4-chloro-3-methylphenyl)-5-(isopropylthio)thiazol-2-yl)-4-(3-fluorophenyl)-3-methyl-1H-pyrazole-5-carboxylic Acid]	1 to 5 µM
Cc1nn(-c2nc(-c3ccc(Cl)c(Cl)c3)c(SC(C)C)s2)c(C(=O)O)c1-c1cnc2ccccn12 [Compound 149, 1-(4-(3,4-dichlorophenyl)-5-(isopropylthio)thiazol-2-yl)-4-(imidazo[1,2-a]pyridin-3-yl)-3-methyl-1H-pyrazole-5-carboxylic acid]	5 to 10 µM
COc1ccnc(-c2c(C)nn(-c3nc(-c4ccc(Cl)c(Cl)c4)c(SC(C)C)s3)c2C(=O)O)n1 [Compound 90, 1-(4-(3,4-dichlorophenyl)-5-(isopropylthio)thiazol-2-yl)-4-(4-methoxypyrimidin-2-yl)-3-methyl-1H-pyrazole-5-carboxylic acid]	> 25 µM
Cc1nn(-c2nc(-c3ccc(Cl)c(Cl)c3)c(SC(C)C)s2)c(C(=O)O)c1-c1nnc2ccccn12 [Compound 56, 4-([1,2,4]triazolo[4,3-a]pyridin-3-yl)-1-(4-(3,4-dichlorophenyl)-5-(isopropylthio)thiazol-2-yl)-3-methyl-1H-pyrazole-5-carboxylic Acid]	> 50 µM
Cc1nn(-c2nc(-c3ccccc3C(F)(F)F)c(SC(C)C)s2)c(C(=O)O)c1-c1cccc(F)c1 [Compound 252, 4-(3-fluorophenyl)-1-(5-(isopropylthio)-4-(2-(trifluoromethyl)phenyl)thiazol-2-yl)-3-methyl-1H-pyrazole-5-carboxylic acid]	10 to 25 µM
Cc1nn(-c2nc(-c3ccc(Cl)c(Cl)c3)c(SC(C)C)s2)c(C(=O)O)c1-c1cc(C)c(=O)n(C)c1 [Compound 94, 1-(4-(3,4-dichlorophenyl)-5-(isopropylthio)thiazol-2-yl)-4-(1,5-dimethyl-6-oxo-1,6-dihydropyridin-3-yl)-3-methyl-1H-pyrazole-5-carboxylic Acid]	> 25 µM
Cc1nn(-c2nc(-c3ccc(Cl)c(Cl)c3)c(SC(C)C)s2)c(C(=O)O)c1-c1ccc2nccn2c1 [Compound 17, 1-(4-(3,4-dichlorophenyl)-5-(isopropylthio)thiazol-2-yl)-4-(imidazo[1,2-a]pyridin-6-yl)-3-methyl-1H-pyrazole-5-carboxylic Acid]	10 to 25 µM
Cc1cc(-c2c(C)nn(-c3nc(-c4ccc(Cl)c(Cl)c4)c(SC(C)C)s3)c2C(=O)O)cc(C)n1 [Compound 23, 1-(4-(3,4-dichlorophenyl)-5-(isopropylthio)thiazol-2-yl)-4-(2,6-dimethylpyridin-4-yl)-3-methyl-1H-pyrazole-5-carboxylic Acid]	< 1 µM
CCCSc1sc(-n2nc(C)c(Cc3ccccc3[N+](=O)[O-])c2C(=O)OC)nc1-c1ccc(Cl)c(Cl)c1 [Compound 9, methyl 1-(4-(3,4-dichlorophenyl)-5-(propylthio)thiazol-2-yl)-3-methyl-4-(2-nitrobenzyl)-1H-pyrazole-5-carboxylate]	> 80 µM
Cc1nn(-c2nc(-c3ccc(Cl)c(Cl)c3)c(SC(C)C)s2)c(C(=O)O)c1-c1nc2ccccc2[nH]1 [Compound 58, 4-(1H-benzo[d]imidazol-2-yl)-1-(4-(3,4-dichlorophenyl)-5-(isopropylthio)thiazol-2-yl)-3-methyl-1H-pyrazole-5-carboxylic Acid]	25 to 50 µM
Cc1nn(-c2nc(-c3ccc(Cl)c(Cl)c3)c(SC(C)C)s2)c(C(=O)O)c1-c1ccccc1Cl [Compound 111, 4-(2-chlorophenyl)-1-(4-(3,4-dichlorophenyl)-5-(isopropylthio)thiazol-2-yl)-3-methyl-1H-pyrazole-5-carboxylic acid]	10 to 25 µM
CSc1sc(-n2nc(C)c(Cc3ccccc3[N+](=O)[O-])c2C(=O)O)nc1-c1ccc(Cl)c(Cl)c1 [Compound 45, 1-(4-(3,4-dichlorophenyl)-5-(methylthio)thiazol-2-yl)-3-methyl-4-(2-nitrobenzyl)-1H-pyrazole-5-carboxylic acid]	25 to 50 µM
Cc1nn(-c2nc(-c3ccc(Cl)c(Cl)c3)c(SC(C)C)s2)c(C(=O)O)c1-c1ccc(NS(C)(=O)=O)cc1 [Compound 124, 1-(4-(3,4-dichlorophenyl)-5-(isopropylthio)thiazol-2-yl)-3-methyl-4-(4-(methylsulfonamido)phenyl)-1H-pyrazole-5-carboxylic acid]	> 50 µM
Cc1nn(-c2nc(-c3ccc(Cl)c(Cl)c3)c(SC(C)C)s2)c(C(=O)O)c1-c1cccc(Cl)c1 [Compound 112, 4-(3-chlorophenyl)-1-(4-(3,4-dichlorophenyl)-5-(isopropylthio)thiazol-2-yl)-3-methyl-1H-pyrazole-5-carboxylic Acid]	1 to 5 µM
Cc1nn(-c2nc(-c3ccc(Cl)c(Cl)c3)c(SC(C)C)s2)c(C(=O)O)c1-c1cccc(Cl)c1C [Compound 59, 4-(3-chloro-2-methylphenyl)-1-(4-(3,4-dichlorophenyl)-5-(isopropylthio)thiazol-2-yl)-3-methyl-1H-pyrazole-5-carboxylic Acid]	5 to 10 µM
Cc1nn(-c2nc(-c3ccc(Cl)c(Cl)c3)c(SC(C)C)s2)c(C(=O)N2CCOCC2)c1-c1cc(C(F)(F)F)cc(C(F)(F)F)c1 [Compound 139, (4-(3,5-bis(trifluoromethyl)phenyl)-1-(4-(3,4-dichlorophenyl)-5-(isopropylthio)thiazol-2-yl)-3-methyl-1H-pyrazol-5-yl)(morpholino)methanone]	10 to 25 µM
Cc1cc(-c2c(C)nn(-c3nc(-c4ccc(C(F)(F)F)cc4)c(SC(C)C)s3)c2C(=O)O)ccc1F [Compound 236, 4-(4-fluoro-3-methylphenyl)-1-(5-(isopropylthio)-4-(4-(trifluoromethyl)phenyl)thiazol-2-yl)-3-methyl-1H-pyrazole-5-carboxylic Acid]	1 to 5 µM
Cc1nn(-c2nc(-c3ccc(Cl)c(Cl)c3)c(SC(C)C)s2)c(C(=O)O)c1-c1c(CO)noc1C [Compound 38, 1-(4-(3,4-dichlorophenyl)-5-(isopropylthio)thiazol-2-yl)-4-(3-(hydroxymethyl)-5-methylisoxazol-4-yl)-3-methyl-1H-pyrazole-5-carboxylic acid]	> 50 µM
COC(=O)c1c(Cc2ccccc2[N+](=O)[O-])c(C)nn1-c1nc(-c2ccc(Cl)c(Cl)c2)cs1 [Compound 1, methyl 1-(4-(3,4-dichlorophenyl)thiazol-2-yl)-3-methyl-4-(2-nitrobenzyl)-1H-pyrazole-5-carboxylate]	> 50 µM
Cc1nn(-c2nc(-c3ccc(Cl)c(Cl)c3)c(SC(C)C)s2)c(C(=O)O)c1-c1cc(Cl)cc(Cl)c1 [Compound 144, 4-(3,5-dichlorophenyl)-1-(4-(3,4-dichlorophenyl)-5-(isopropylthio)thiazol-2-yl)-3-methyl-1H-pyrazole-5-carboxylic Acid]	< 1 µM
COc1cc(-c2c(C)nn(-c3nc(-c4ccc(Cl)c(Cl)c4)c(SC(C)C)s3)c2C(=O)O)cc(C(F)(F)F)c1 [Compound 146, 1-(4-(3,4-dichlorophenyl)-5-(isopropylthio)thiazol-2-yl)-4-(3-methoxy-5-(trifluoromethyl)phenyl)-3-methyl-1H-pyrazole-5-carboxylic Acid]	1 to 5 µM

— patent publication US10537558B2 (Bantam Pharmaceutical, LLC, priority 2015, dated 2020)
